Series [1] relates to Escherichia coli. Kind of series: Antibacterial activity against mucosa-associated Escherichia coli isolate HM456 isolated from patient with irritable bowel syndrome or sporadic polyps after 24 hrs by Etest antibiotic concentration gradient method. The series is classed as functional. The note with it: isolate HM456, 24 h.
In series [2] the test system is Escherichia coli. The experiment in a line: Antibacterial activity against Escherichia coli isolate LF82 isolated from colonic mucosal biopsies of patient with Crohn's disease after 24 hrs by Etest antibiotic concentration gradient method. The settings on record: isolate LF82, 24 h.
The test system of series [3] is Escherichia coli. Kind of series: Antibacterial activity against extracellular Escherichia coli isolate HM605 isolated from colonic mucosal biopsies of patient with Crohn's disease at 0.01 to 10 ug/ml after 3 hrs. The series is classed as functional, organism-based.
The subject of series [4] is Escherichia coli. Kind of series: Antibacterial activity against gentamicin-treated internalized Escherichia coli isolate HM615 in mouse J774A1 cells isolated from colonic mucosal biopsies of patient with Crohn's disease assessed as intracellular killing of bacteria at 10% compound Cmax after 3 hrs. It counts as functional, J774.A1.
For series [5], the system named is Escherichia coli. The experiment in a line: Antibacterial activity against mucosa-associated Escherichia coli isolate HM488 isolated from patient with irritable bowel syndrome or sporadic polyps after 24 hrs by Etest antibiotic concentration gradient method. The note with it: isolate HM488, 24 h.
For series [6], the system named is Escherichia coli. The experiment in a line: Antibacterial activity against Escherichia coli isolate HM615 isolated from colonic mucosal biopsies of patient with Crohn's disease after 24 hrs by Etest antibiotic concentration gradient method. The settings on record: isolate HM615, 24 h. It counts as functional.
The subject of series [7] is Escherichia coli. The experiment in a line: Antibacterial activity against gentamicin-treated internalized Escherichia coli isolate HM580 in mouse J774A1 cells isolated from colonic mucosal biopsies of patient with Crohn's disease assessed as intracellular killing of bacteria at 10% compound Cmax after 3 hrs. The series is classed as functional, J774.A1.
The test system of series [8] is Escherichia coli. The experiment in a line: Antibacterial activity Escherichia coli isolate HM419 isolated from ileo-colonic mucosal biopsies of patient with Crohn's disease after 24 hrs by Etest antibiotic concentration gradient method. The series is classed as functional. The note with it: isolate HM419, 24 h.
Series [9] deals with Escherichia coli. The experiment in a line: Antibacterial activity against Escherichia coli isolate HM605 isolated from colonic mucosal biopsies of patient with Crohn's disease.
Series [10] concerns Escherichia coli. The experiment in a line: Antibacterial activity against gentamicin-treated internalized Escherichia coli isolate LF82 in mouse J774A1 cells isolated from chronic ileal lesions of patient with Crohn's disease assessed as intracellular killing of bacteria at 10% compound Cmax after 3 hrs. It counts as functional, J774.A1.
The subject of series [11] is Escherichia coli. Kind of series: Antibacterial activity against mucosa-associated Escherichia coli isolate HM428 isolated from patient with irritable bowel syndrome or sporadic polyps after 24 hrs by Etest antibiotic concentration gradient method. The series is classed as functional. The note with it: isolate HM428, 24 h.
Series [12] has as its system Escherichia coli. The experiment in a line: Antibacterial activity against Escherichia coli isolate HM95 isolated from ileal mucosal biopsies of patient with Crohn's disease after 24 hrs by Etest antibiotic concentration gradient method. The series is classed as functional. The settings on record: isolate HM95, 24 h.
Series [13] concerns Escherichia coli. Kind of series: Antibacterial activity against mucosa-associated Escherichia coli isolate HM484 isolated from patient with irritable bowel syndrome or sporadic polyps after 24 hrs by Etest antibiotic concentration gradient method. The settings on record: isolate HM484, 24 h.
In series [14] the test system is Escherichia coli. Kind of series: Antibacterial activity against gentamicin-treated internalized Escherichia coli isolate HM605 in mouse J774A1 cells isolated from colonic mucosal biopsies of patient with Crohn's disease assessed as intracellular killing of bacteria at 10% compound Cmax after 3 hrs. The series is classed as functional, J774.A1.
For series [15], the system named is Escherichia coli. Kind of series: Antibacterial activity against mucosa-associated Escherichia coli isolate HM463 isolated from patient with irritable bowel syndrome or sporadic polyps after 24 hrs by Etest antibiotic concentration gradient method. The note with it: isolate HM463, 24 h.
For series [16], the system named is Escherichia coli. Kind of series: Antibacterial activity Escherichia coli isolate HM413 isolated from ileo-colonic mucosal biopsies of patient with Crohn's disease after 24 hrs by Etest antibiotic concentration gradient method. It counts as functional. The note with it: isolate HM413, 24 h.
The test system of series [17] is Escherichia coli. Kind of series: Antibacterial activity against Escherichia coli isolate HM154 isolated from colonic mucosal biopsies of patient with Crohn's disease after 24 hrs by Etest antibiotic concentration gradient method. The series is classed as functional. The note with it: isolate HM154, 24 h.
Series [18] has as its system Escherichia coli. Kind of series: Antibacterial activity against Escherichia coli isolate HM580 isolated from colonic mucosal biopsies of patient with Crohn's disease after 24 hrs by Etest antibiotic concentration gradient method. It counts as functional. The note with it: isolate HM580, 24 h.
Series [19] relates to Escherichia coli. The experiment in a line: Antibacterial activity against mucosa-associated Escherichia coli isolate HM454 isolated from patient with irritable bowel syndrome or sporadic polyps after 24 hrs by Etest antibiotic concentration gradient method. It counts as functional. The note with it: isolate HM454, 24 h.
The subject of series [20] is J774.A1. Kind of series: Cytotoxicity against mouse J774A1 cells assessed as release of adenylate kinase at 100 ug/ml after 3 hrs […] relative to control. The series is classed as cell-based. The settings on record: j774.a1, 3 h.
The test system of series [21] is Escherichia coli. Kind of series: Antibacterial activity against Escherichia coli K-12 after 24 hrs by Etest antibiotic concentration gradient method. The series is classed as functional. The note with it: K-12, 24 h.
Series [22] relates to Escherichia coli. The experiment in a line: Antibacterial activity against Escherichia coli isolate HM605 isolated from colonic mucosal biopsies of patient with Crohn's disease after 24 hrs by Etest antibiotic concentration gradient method. The series is classed as functional. The note with it: isolate HM605, 24 h.
In series [23] the test system is J774.A1. Kind of series: Cytotoxicity against mouse J774A1 cells assessed as macrophage number at […] ug/ml after 3 hrs by total cell protein assay. The note with it: j774.a1, 3 h. It counts as cell-based.
In series [24] the test system is Escherichia coli. The experiment in a line: Antibacterial activity against Escherichia coli isolates isolated from patients with Crohn's disease at 5 ug/disk by susceptibility testing disk method. It counts as functional.
The subject of series [25] is Escherichia coli. The experiment in a line: Antibacterial activity against gentamicin-treated internalized Escherichia coli isolate HM605 isolated from colonic mucosal biopsies of patient with Crohn's disease in mouse J774A1 cells assessed as intracellular killing of bacteria at […] ug/ml after 3 hrs. The series is classed as functional, J774.A1.
Series [26] deals with Escherichia coli. The experiment in a line: Antibacterial activity against Escherichia coli ATCC 25922 after 24 hrs by Etest antibiotic concentration gradient method. It counts as functional, organism-based.
In series [27] the test system is Escherichia coli. Kind of series: Antibacterial activity against gentamicin-treated internalized Escherichia coli isolate HM605 isolated from colonic mucosal biopsies of patient with Crohn's disease in mouse J774A1 cells assessed as intracellular killing of bacteria at 1.7 ug/ml after 3 hrs. The series is classed as functional, J774.A1.
Series [28] has as its system J774.A1. The experiment in a line: Cytotoxicity against mouse J774A1 cells assessed as macrophage number at 1.7 ug/ml after 3 hrs by total cell protein assay. The settings on record: j774.a1, 3 h. The series is classed as cell-based.
In series [29] the test system is Escherichia coli. The experiment in a line: Antibacterial activity against mucosa-associated Escherichia coli isolates isolated from patients with Crohn's disease by disk diffusion method. It counts as functional. (In general: Agar diffusion results depend on both activity and mobility in agar.)
Series [30] can be described thus: Cmax in patient with Billroth-II gastrectomy at 250 mg, po. The note with it: human, in vivo. Details: dose 250 mg, route oral. The series is classed as ADME, organism-based.

≈ marks a conversion by molar mass, not a printed value. Calls of active or inactive are those of the source. The rule behind the calls is not given here. Where only a bound is given, the exact number is not on record here.

For the compound `O=C(O)c1cn(C2CC2)c2cc(N3CCNCC3)c(F)cc2c1=O` [CIPROFLOXACIN], the MIC in series [1], in series [2], in series [5], in series [6], in series [8] and in series [11] was at most 1 µg/mL each time. Moreover, the minimum inhibitory concentration (MIC) in [12], in series [13], in [15], in series [16], in series [17] and in series [18] was at most 1 µg/mL in each case. The minimal inhibitory concentration (MIC) (commonly the lowest concentration that inhibits growth of the organism) in [19] is at most 1 µg/mL. In series [3], the outcome was Active. Moreover, the Activity amounted to 83.8% in series [4]; 90.4% in series [7]; 87.6% in series [10]; 86% in series [14]; 90% in [20]. For the same compound, the minimal bactericidal concentration (MBC) (as a rule, the lowest tested concentration that kills the bacteria rather than only halting them) in series [9] is 0.3 µg/mL (≈ 0.905 µM).
Turning to `CO[C@H]1/C=C/O[C@@]2(C)Oc3c(C)c(O)c4c(O)c(c(/C=N/N5CCN(C)CC5)c(O)c4c3C2=O)NC(=O)/C(C)=C\C=C\[C@H](C)[C@H](O)[C@@H](C)[C@@H](O)[C@@H](C)[C@H](OC(C)=O)[C@@H]1C` [RIFAMPIN], the MIC in [21] was 3 µg/mL (≈ 3.65 µM); in [22] it was 6 µg/mL (≈ 7.29 µM); in series [1], at least 4 µg/mL; in series [6] it was at least 4 µg/mL; in series [8] it was at least 4 µg/mL; in [11], at least 4 µg/mL. For the same compound, the MIC in [12] is at least 4 µg/mL; in series [16], 2 µg/mL (≈ 2.43 µM); in series [17] it was at least 4 µg/mL; in [18], at least 4 µg/mL; in series [19], at least 4 µg/mL. The result in series [3] was Active. For the same compound, the Activity worked out at 80.2% in series [4]; 94.4 in series [23]; 35.8% in [7]; 32.8% in [10]; 0% in series [24]; 85.1% in [25]. For the same compound, the Activity in [14] is listed as 32.6%; in series [20], 90%. The same compound yielded an MBC in [9] of 3 µg/mL (≈ 3.65 µM).
Take `CN(C)[C@@H]1C(O)=C(C(N)=O)C(=O)[C@@]2(O)C(O)=C3C(=O)c4c(O)cccc4[C@@](C)(O)[C@H]3C[C@@H]12` [TETRACYCLINE]: the minimal inhibitory concentration (MIC) was 2 µg/mL (≈ 4.5 µM) in series [22]; at most 4 µg/mL in [1]; at most 4 µg/mL in series [6]; at most 4 µg/mL in series [8]; at most 4 µg/mL in series [11]; at most 4 µg/mL in [12]. Moreover, the MIC in [16], in series [17] and in series [18] was at most 4 µg/mL each time. The result in series [3] and in series [26] was Active. The Activity in [4] is reported as 69.6%; in [27], 62.8%; in series [7] it was 62.4%; in [28], 55.9; in [10], 64.2%; in [14] it was 44.8%. For the same compound, the Activity in [29] came to 67%; in series [20], 90%. Moreover, the MBC in series [9] is 1 µg/mL (≈ 2.25 µM). Moreover, the peak concentration (Cmax) (as a rule, the maximum level reached in the sampled fluid or tissue) in series [30] amounted to 1700 ng/mL.

The values above are taken from ChEMBL document CHEMBL1151474, “Replication of Colonic Crohn's Disease Mucosal Escherichia coli Isolates within Macrophages and Their Susceptibility to Antibiotics” (Antimicrob Agents Chemother, 2008).
